Entries after “also recorded” stand apart in the source; their conditions may differ.
What was measured:
MBLAC1 [1] = target: T1, MBLAC1 (Mus musculus, UniProt Q8BWY4); assay: BSI binding assay, mouse frontal cortex lysates with and without MBLAC1 immunodepletion
T1 construct: from tissue; host or cells: frontal cortex of wild type C57BL/6J mice, 100,000 x g supernatant
T1 sequence (Q8BWY4 1-260): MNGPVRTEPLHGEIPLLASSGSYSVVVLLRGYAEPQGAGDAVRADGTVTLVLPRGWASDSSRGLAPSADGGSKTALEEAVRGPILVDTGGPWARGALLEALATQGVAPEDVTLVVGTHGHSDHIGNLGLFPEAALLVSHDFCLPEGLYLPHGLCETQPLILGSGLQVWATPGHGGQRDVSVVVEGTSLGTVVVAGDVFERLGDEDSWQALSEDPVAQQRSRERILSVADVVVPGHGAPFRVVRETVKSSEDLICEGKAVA
Method: To detect endogenous Cef binding and to determine whether MBLAC1 is likely to be responsible for observed interactions, the BSI experiments were repeated using mouse frontal cortex lysates, with and without prior heat denaturation. To determine whether, and to what degree, Cef binding signals derive from MBLAC1, BSI studies were performed on lysates that had been immunodepleted of MBLAC1 protein by anti-MBLAC1 antibody (#80). […] These findings support the contention that, under these binding conditions, MBLAC1 is likely the primary species in brain lysates capable of interacting with Cef at high-affinity—that the well-replicated actions Cef in the CNS arise through MBLAC1 interactions.
Wild type C57BL/6J mice (Jackson Labs, Bar Harbor, Me.) were rapidly decapitated and frontal cortex was dissected. […] Supernatants were collected, diluted with 2× lysis buffer (40 mM HEPES, 220 mM KCl, 20 mM NaCl, 4 mM MgCl, 10 mM KH2PO4, 500 μM ZnSO4) and protein concentration determined (BCA Protein Assay, ThermoFisher, Waltham, Mass.). […]
To assess the binding of unlabeled Cef with MBLAC1 in cell and tissue lysates, BSI was utilized. […] RI changes are quantified by comparing fringe shifts between test and reference samples. […]

mouse MBLAC1 = target: T2, mouse MBLAC1 (Mus musculus, UniProt Q8BWY4); assay: Backscattering Interferometry (BSI) binding assay, lysates of T-REx cells expressing mouse MBLAC1; details: for BSI binding signal: TET induced vs non-induced T-REx lysates, mouse MBLAC1, 5 μM and 50 μM
T2 construct: expressed in transfected cells; host or cells: HEK Flp-In T-REx-293 cells, pcDNA5/FRT/TO, TET-induced, lysate
T2 sequence (Q8BWY4 1-260): T1 sequence (Q8BWY4 1-260)
Source text: Although the pulldown approach provided initial evidence of Cef interactions with MBLAC1, the efficiency of competition was lower than expected, based on prior studies reporting the in vitro potency of Cef for GLT-1 induction. It was reasoned that steric hindrance could limit high-affinity interactions of MBLAC1 with Cef-conjugated beads. As radiolabeled Cef was unavailable, a non-isotopic approach that could examine Cef/MBLAC1 interactions without ligand immobilization was sought. Backscattering interferometry is a sensitive approach that can detect both kinetic and equilibrium associations of unlabeled, small molecule interactions with unmodified target proteins (Bornhop et al., Science vol. 317, 1732-1736, 2007). […] BSI signals were eliminated by heat denaturation of extracts prior to analysis, consistent with Cef binding as arising from a proteinaceous species versus TET used to induce MBLAC1 expression.
To assess the binding of unlabeled Cef with MBLAC1 in cell and tissue lysates, BSI was utilized. A BSI instrument was assembled and employed (Kussrow et al., Anal Chem 84, 779-792, 2012). Briefly, BSI, using a semi-circular chip, a helium-neon laser, and CCD camera, allows for high-sensitivity, refractive index (RI) sensing. The RI signal is obtained by isolating shifts in the backscattered fringes by Fourier analysis. RI changes are quantified by comparing fringe shifts between test and reference samples.
(§1) Lysates for BSI contained Cef at concentrations of 0 μM, 5 μM, and 50 μM and concentrations of either 300 μg/mL (mouse cell lysates) or 100 μg/mL (human cell lysates and mouse brain lysates) protein. Samples were incubated on ice for 1 hr prior to analysis to favor equilibrium binding conditions. To obtain BSI signals, the sample with 0 μM Cef was injected into the channel in a stop-flow manner using a vacuum and allowed to reach temperature and pressure equilibrium (˜10 sec) at which point the phase value (BSI signal) was measured for 20 sec. Specific BSI signal was determined by subtracting Cef only signal from Cef-lysate signals. […]

human MBLAC1 = target: T3, human MBLAC1 (Homo sapiens, UniProt A4D2B0); assay: Backscattering Interferometry (BSI) binding assay, lysates of T-REx cells expressing human MBLAC1; details: TET induced vs non-induced T-REx lysates, 5 μM and 50 μM
T3 construct: expressed in transfected cells; host or cells: HEK Flp-In T-REx-293 cells, pcDNA5/FRT/TO, TET-induced, lysate
T3 sequence (A4D2B0 1-266): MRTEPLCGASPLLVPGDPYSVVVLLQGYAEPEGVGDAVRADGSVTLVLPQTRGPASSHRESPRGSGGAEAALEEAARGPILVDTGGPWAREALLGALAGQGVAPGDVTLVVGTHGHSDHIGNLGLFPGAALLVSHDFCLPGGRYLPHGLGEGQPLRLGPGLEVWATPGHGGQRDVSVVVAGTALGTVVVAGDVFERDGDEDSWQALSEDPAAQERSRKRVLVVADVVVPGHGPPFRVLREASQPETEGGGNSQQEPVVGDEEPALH
Source text: Although the pulldown approach provided initial evidence of Cef interactions with MBLAC1, the efficiency of competition was lower than expected, based on prior studies reporting the in vitro potency of Cef for GLT-1 induction. It was reasoned that steric hindrance could limit high-affinity interactions of MBLAC1 with Cef-conjugated beads. As radiolabeled Cef was unavailable, a non-isotopic approach that could examine Cef/MBLAC1 interactions without ligand immobilization was sought. […]
To assess the binding of unlabeled Cef with MBLAC1 in cell and tissue lysates, BSI was utilized. […] RI changes are quantified by comparing fringe shifts between test and reference samples.
as §1, with “Samples were incubated on ice for 1 hr prior to analysis to favor equilibrium binding conditions.” left out

[2] = tested on: MBLAC1 WT and MBLAC1 KO mice; assay: Effect of repeated Cef on cocaine-induced locomotion (open field); format: in vivo, mouse; details: 200 mg/kg IP once daily for 10 days, cocaine 10 mg/kg 24 h later, first 30 min
Method: Animals: All mice were used in accordance with protocols approved by the Florida Atlantic University Institutional Animal Care and Use Committee. Mice were group-housed on a 12 h/12 h light/dark cycle and given ad libitum access to food and water. Breeding was accomplished with mating of heterozygous males with heterozygous females. Male and female mice 11-13 weeks old at the start of the experiment were used in testing the effects of repeated ceftriaxone on response to cocaine in the open field assay. Data from males and females were combined.
Repeated ceftriaxone treatment/acute cocaine administration: MBLAC1 wild-type (WT, MBLAC1^+/+) and knockout mice (MBLAC1^−/−) were used in this experiment. Mice were injected IP once daily for 10 days with 200 mg/kg ceftriaxone (CEF) or saline. Twenty-four hours following the last CEF injection, mice were injected with 10 mg/kg cocaine or saline followed immediately by testing in open field activity chambers (Med Associates, Fairfax, Vt.) for 60 minutes. Locomotor activity was evaluated by photocells in the X, Y and Z dimensions. Horizontal beam breaks, vertical beam breaks, and repetitive movements were recorded and measures, including distance traveled, vertical rearing and stereotypic counts, were calculated. Data were analyzed in 5 min time bins within session, and for the first 30 min following cocaine injection. Data were analyzed by two-way ANOVA repeated measures, with time bin as the repeated measure, or by two-way ANOVA for 30 min cumulated data. At the end of behavior, mice were euthanized by CO2.
The methods were performed essentially as described in Tallarida et al. Neurosci Lett vol. 556, p. 155-159, 2013.

MBLAC1 [3] = assay: Affinity capture of MBLAC1 with Cef-conjugated Sepharose beads, free Cef competition; details: 50 μM free Cef preincubated with MBLAC1 containing extract; n=6

BSI binding signal in mouse frontal cortex lysate (MBLAC1 [1]; non-depleted lysate, 5 μM and 50 μM) | Kd (mouse MBLAC1; lysate from mouse MBLAC1 expressing cells, Cef 0.78 μM to 50 μM, r2=0.96, read-out: KD for binding (single site binding equation fit to BSI data)) [nM] | Mean reduction in MBLAC1 binding to immobilized Cef (MBLAC1 [3]) [%] | Compound | BSI binding signal in MBLAC1-immunodepleted mouse frontal cortex lysate (MBLAC1 [1]; immunodepleted with MBLAC1 antibody #80) | BSI binding signal (mouse MBLAC1) | BSI binding signal (human MBLAC1) | Effect of Cef pretreatment on cocaine-induced locomotion in MBLAC1 KO mice [2] | Effect of Cef pretreatment on cocaine-induced locomotion in MBLAC1 WT mice [2] | Effect of Cef pretreatment on cocaine-induced locomotion in MBLAC1 KO mice ([2]; listed as CEF) | Effect of Cef pretreatment on cocaine-induced locomotion in MBLAC1 WT mice ([2]; listed as CEF)
shows binding signal with Cef | 2200 | 52.4±9.3 | CO/N=C(\C(=O)N[C@@H]1C(=O)N2C(C(=O)O)=C(CSc3nc(=O)c(=O)[nH]n3C)CS[C@H]12)c1csc(N)n1 [Cef, ceftriaxone] | the Cef binding signal was abolished; also recorded: eliminated Cef binding activity | significant, dose-dependent BSI signals were detected only in induced cell lysates; also recorded: concentration-dependent, heat-sensitive BSI binding signals | significant, dose-dependent BSI signals were detected only in induced cell lysates; also recorded: concentration-dependent, heat-sensitive BSI binding signals | no ability to attenuate cocaine actions | the locomotor activating effects of cocaine were lost | had no effect on the response to cocaine | completely blocked the effects of cocaine
– | – | – | CC(=O)OCC1=C(C(=O)O)N2C(=O)[C@@H](NC(=O)CCC[C@@H](N)C(=O)O)[C@H]2SC1 [CephC, cephalosporin C] | – | a significant CephC BSI signal (FIG. 3D) was not seen; also recorded: non-significant reduction in BSI signal | – | – | – | – | –

Reference: patent US20200046856A1, “METHODS FOR IDENTIFYING MBLAC1-DEPENDENT MOLECULAR NETWORKS” (Florida Atlantic University Board of Trustees, priority 2018, published 2020)
